# Experiments:
# Type in all cases: in vivo
# [1] = test system: brown stink bug, Euschistus heros; assay: Brown stink bug bean-piece dip bioassay (Example 8); details: alone
# Protocol: (§1) The active compounds were formulated in a 10% acetone solution with 0.025% non-ionic surfactant, TWEEN® 20. Bean pieces (about one inch-long) were used for the tests. Four bean pieces were placed in each tested active solution and left there for 10 minutes. Bean pieces were taken out of the active solution, and each piece was placed in a well in a 32-well tray and allowed to air dry. Three third-instar nymphs of brown stink bug, Euschistus heros, were infested into each well.
# The active compounds formulated in a 10% acetone solution with 0.025% non-ionic surfactant, TWEEN® 20 were tested against brown stink bugs, Euschistus heros, according to the procedure described in example 8A.
# [2] = test system: Western flower thrips, Frankliniella occidentalis; assay: Western flower thrips cotton leaf punch dip bioassay (Example 9); details: alone
# Protocol: The active compounds were formulated in a 10% acetone solution with 0.025% non-ionic surfactant, TWEEN® 20. Cotton leaf punches were used for bioassays. Two cotton leaf punches were placed in each solution and left there for 10 minutes. Leaves were taken out of the solution, placed on a piece of filter paper in separated Petri dishes, and air dried. Each leaf disc was considered a repetition. Five nymph of Western flower thrips, Frankliniella occidentalis, were infested per repetition.
# [3] = test system: Western plant bug, Lygus hesperus; assay: Western plant bug bean-piece dip bioassay (Examples 10 and 11)
# Protocol: as §1, with “Bean” for “The active compounds were formulated in a 10% acetone solution with 0.025% non-ionic surfactant, TWEEN® 20. Bean”, “Western plant” for “brown stink”, “Lygus hesperus,” for “Euschistus heros,”
# [4] = test system: brown stink bug, Euschistus heros; assay: Brown stink bug diet-treatment bioassay (Example 6); details: alone
# [5] = test system: Western flower thrips, Frankliniella occidentalis (Pergande); assay: Western flower thrips bioassay on treated first true cotton leaves (Example 5); details: alone
# Protocol: Ten second instar larvae of the Western flower thrips, Frankliniella occidentalis (Pergande), were infested onto each leaf disc. […] The “Colby's Expected Action” was calculated using Colby's equation as discussed previously.
# [6] = test system: diamondback moth, Plutella xylostella; assay: Diamondback moth bioassay on track-sprayed cabbage (Example 7); details: alone, dose rate 0.000078 weight %
# Excerpt: Three second-instar diamondback moth, Plutella xylostella, were infested onto each leaf disc.
Compound,% Control Four Days After Treatment ([1]; dose rate 0.0025 weight %),% Control Four Days After Treatment ([1]; dose rate 0.01 weight %),% Control Three Days After Treatment ([2]; dose rate 0.00002 weight %),% Control Three Days After Treatment ([2]; dose rate 0.000078 weight %),% Control Three Days After Treatment ([2]; dose rate 0.0003125 weight %),% Control Three Days After Treatment ([2]; dose rate 0.00125 weight %),% Control Three Days After Treatment ([2]; dose rate 0.005 weight %),% Control Three Days After Treatment ([2]; dose rate 0.02 weight %),"% Control Three Days After Treatment ([3]; dinotefuran alone, dose rate 0.000078 weight %)","% Control Three Days After Treatment ([3]; dinotefuran alone, dose rate 0.00125 weight %)","% Control Three Days After Treatment ([3]; dinotefuran alone, dose rate 0.005 weight %)","% Control Three Days After Treatment ([3]; dinotefuran alone, dose rate 0.02 weight %)","% Control Three Days After Treatment ([3]; acetamiprid alone, dose rate 0.005 weight %)","% Control Three Days After Treatment ([3]; acetamiprid alone, dose rate 0.02 weight %)",% Control Six Days After Treatment ([4]; dose rate 0.000039 weight %),% Control Six Days After Treatment ([4]; dose rate 0.000078 weight %),% Control Six Days After Treatment ([4]; dose rate 0.000156 weight %),% Control Three Days After Treatment ([5]; dose rate 0.002 weight %),% Control Three Days After Treatment ([5]; dose rate 0.02 weight %),% Control Three Days After Treatment [6]
"CN=C(NCC1CCOC1)N[N+](=O)[O-] (centres unmarked) [Dinotefuran, 2-methyl-1-nitro-3-[(tetrahydro-3-furanyl)methyl]guanidine]",50%,75%,0%,0%,0%,0%,10%,0%,0%,8%,17%,92%,,,,,,,,
"C/C(=N\C#N)N(C)Cc1ccc(Cl)nc1 [Acetamiprid, (1E)-N-[(6-chloro-3-pyridyl)methyl]-N′-cyano-N-methyl acetamidine]",,,,,,,,,,,,,0%,33%,0%,0%,9%,30%,60%,4.17%

# — patent US9801376B2, “Synergistic pesticidal compositions and related methods” (Dow AgroSciences LLC, priority 2013, dated 2017)
